Source: patent US9505781B2, “Compositions comprising thienopyrimidine and thienopyridine compounds and methods of use thereof” (The Regents of the University of Michigan, priority 2013, dated 2016)

Target: T1, menin-MLL interaction (Homo sapiens, UniProt O00255)
T1 sequence (O00255 1-610): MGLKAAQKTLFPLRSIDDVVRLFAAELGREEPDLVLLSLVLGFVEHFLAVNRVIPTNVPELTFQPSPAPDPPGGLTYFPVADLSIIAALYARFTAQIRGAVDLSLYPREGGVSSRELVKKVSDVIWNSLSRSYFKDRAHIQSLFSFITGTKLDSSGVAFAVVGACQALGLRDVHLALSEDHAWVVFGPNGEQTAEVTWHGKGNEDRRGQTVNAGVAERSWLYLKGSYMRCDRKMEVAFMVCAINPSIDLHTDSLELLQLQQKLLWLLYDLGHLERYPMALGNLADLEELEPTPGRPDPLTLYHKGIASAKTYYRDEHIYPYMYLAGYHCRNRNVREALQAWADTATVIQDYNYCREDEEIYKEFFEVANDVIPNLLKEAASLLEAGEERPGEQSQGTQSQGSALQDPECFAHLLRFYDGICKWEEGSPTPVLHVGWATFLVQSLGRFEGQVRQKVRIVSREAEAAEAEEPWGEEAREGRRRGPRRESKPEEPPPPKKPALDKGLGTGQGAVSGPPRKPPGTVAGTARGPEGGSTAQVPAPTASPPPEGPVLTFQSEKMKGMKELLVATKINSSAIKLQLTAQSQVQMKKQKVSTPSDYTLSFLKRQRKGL
Test: biochemical
Description: Compounds that inhibit the interaction decrease the fluorescence anisotropy which is being used as a read-out for compound screening and for IC50 determination.

Row | SMILES | IC50 [nM]
1 | NS(=O)(=O)Nc1ccc(CC(=O)N2CCN(c3ncnc4sc(CC(F)(F)F)cc34)CC2)cc1 [Compound 47] | < 100
2 | CS(=O)(=O)N(CC1CCCC1)c1ccc(CC(=O)N2CCN(c3ncnc4sc(CC(F)(F)F)cc34)CC2)cc1 [Compound 100] | 500 to 2000
3 | CC(C)N(c1ccc(CC(=O)N2CCN(c3ncnc4sc(CC(F)(F)F)cc34)CC2)cc1)S(C)(=O)=O [Compound 103] | 500 to 2000
4 | FC(F)(F)Cc1cc2c(N[C@H]3CCN(Cc4ccccc4)C[C@@H]3NCC3CCCC3)ncnc2s1 [Compound 169] | 100 to 500
5 | COc1ccc(CN2CCC(CNc3ncnc4sc(CC(F)(F)F)cc34)CC2)c(Cl)c1 [Compound 257] | 100 to 500
6 | N#Cc1cc2c(CO)c(CN3CCC(Nc4ncnc5sc(CC(F)(F)F)cc45)CC3)ccc2n1CCO [Compound 321] | < 100
7 | OCC(O)CN(c1ncnc2sc(CC(F)(F)F)cc12)C1CCN(Cc2ccccc2)CC1 (stereo not drawn) [Compound 128] | 100 to 500
8 | NS(=O)(=O)c1ccc(CN2CCC(CNc3ncnc4sc(CC(F)(F)F)cc34)CC2)cc1 [Compound 262] | 100 to 500
9 | FC(F)(F)Cc1cc2c(N[C@H]3CCN(Cc4ccccc4)C[C@@H]3NCCC3CCCC3)ncnc2s1 [Compound 171] | 100 to 500
10 | CCOc1cc2c(cc1CN1CCC(Nc3ncnc4sc(CC(F)(F)F)cc34)CC1)cc(C#N)n2CC(N)=O [Compound 216] | < 100
11 | CCCc1cc2c(NC3CCN(Cc4ccc(C)cc4)CC3)ncnc2s1 [Compound 151] | 500 to 2000
12 | CCCCN(CC1CCN(Cc2ccc(C#N)cc2)CC1)c1ncnc2sc(CC(F)(F)F)cc12 [Compound 264] | 500 to 2000
13 | N#Cc1cc2cc(CN3CCC(Nc4ncnc5sc(CC(F)(F)F)cc45)CC3)ccc2n1Cc1cc(OCCC2CC2)n[nH]1 [Compound 412] | 100 to 500
14 | CC1(C)CN=C(N2CCN(c3ncnc4sc(CCCCc5ccccc5)cc34)CC2)S1 [Compound 40] | 500 to 2000
15 | CNCCS(=O)(=O)Nc1ccc(CC(=O)N2CCN(c3ncnc4sc(CC(F)(F)F)cc34)CC2)cc1 [Compound 58] | < 100
16 | N#Cc1ccc(N2CCC(N3CCN(c4ncnc5sc(CC(F)(F)F)cc45)CC3)CC2)cc1 [Compound 13] | 100 to 500
17 | N#Cc1cc2c(F)c(CN3CCC(Nc4ncnc5sc(CC(F)(F)F)cc45)CC3)ccc2n1CC(N)=O [Compound 205] | < 100
18 | COCc1cnc2sc(CC(F)(F)F)cc2c1NC1CCN(Cc2ccc3[nH]c(C#N)cc3c2)CC1 [Compound 281] | 100 to 500
19 | N#Cc1cc2cc(CN3CCC(Nc4ncnc5sc(CC(F)(F)F)cc45)CC3)ccc2n1CCN1CCNCC1 [Compound 393] | < 100
20 | O=C(Cc1cccc(F)c1)N1CCN(c2ncnc3sc(CC(F)(F)F)cc23)CC1 [Compound 73] | 100 to 500
21 | N#Cc1cc2c(Cl)c(CN3CCC(Nc4ncnc5sc(CC(F)(F)F)cc45)CC3)ccc2n1Cc1cn[nH]c1 [Compound 381] | < 100
22 | CNS(=O)(=O)c1ccc(CC(=O)N2CCN(c3ncnc4sc(CC(F)(F)F)cc34)CC2)cc1 [Compound 82] | 100 to 500

Row | SMILES | IC50 [nM]
23 | FC(F)(F)Cc1cc2c(NC3CCN(Cc4ccccc4Cl)CC3)ncnc2s1 [Compound 119] | 100 to 500
24 | N#Cc1cc2cc(CN3CCC(Nc4ncnc5sc(CC(F)(F)F)cc45)CC3)ccc2n1Cc1c[nH]cn1 [Compound 185] | < 100
25 | CNC(=O)CCn1c(C#N)cc2cc(CN3CCC(Nc4ncnc5sc(CC(F)(F)F)cc45)CC3)ccc21 [Compound 239] | 100 to 500
26 | Cc1c(CN2CCC(Nc3ncnc4sc(CC(F)(F)F)cc34)CC2)ccc2c1cc(C#N)n2CC1CNC(=O)C1 (stereo not drawn) [Compound 430] | < 100
27 | O=C(Cc1ccc(NS(=O)(=O)N2CCOCC2)cc1)N1CCN(c2ncnc3sc(CC(F)(F)F)cc23)CC1 [Compound 53] | < 100
28 | Cc1c(CN2CCC(Nc3ncnc4sc(CC(F)(F)F)cc34)CC2)ccc2c1cc(C#N)n2CCN1CCN(C(=O)N(C)C)CC1 [Compound 376] | < 100
29 | O=C(COCc1ccccc1)N1CCN(c2ncnc3sc(CC(F)(F)F)cc23)CC1 [Compound 92] | 500 to 2000
30 | N#Cc1cc2cc(CN3CCC(Nc4ncnc5sc(CC(F)(F)F)cc45)CC3)ccc2n1CCN [Compound 186] | < 100
31 | N#Cc1cc2cc(CN3CCC(Nc4ncnc5sc(CC(F)(F)F)cc45)CC3)ccc2n1CC(CO)OC(F)F (stereo not drawn) [Compound 297] | < 100
32 | N#Cc1cc2cc(CN3CCC(Nc4ncnc5sc(CC(F)(F)F)cc45)CC3)c(O)cc2n1Cc1cn[nH]c1 [Compound 382] | < 100
33 | Oc1cccc(O)c1CN1CCC(Nc2ncnc3sc(CC(F)(F)F)cc23)CC1 [Compound 111] | 100 to 500
34 | N#Cc1cc2cc(CN3CCC(Nc4ncnc5sc(CC(F)(F)F)cc45)C(NCc4cccc(F)c4)C3)ccc2[nH]1 (stereo not drawn) [Compound 289] | < 100
35 | O=C(Cc1ccc(NS(=O)(=O)N2CCCCC2)cc1Cl)N1CCN(C2=NC=NC3SC(CC(F)(F)F)=CC23)CC1 (stereo not drawn) [Compound 284] | < 100
36 | Cc1c(CN2CCC(Nc3ncnc4sc(CC(F)(F)F)cc34)CC2)ncc2[nH]c(C#N)cc12 [Compound 380] | < 100
37 | COc1ccc(CCCc2nnc(N3CCN(c4ncnc5sc(CC(F)(F)F)cc45)CC3)s2)cc1 [Compound 12] | 100 to 500
38 | Cc1c(CN2CCC(Nc3ncnc4sc(CC(F)(F)F)cc34)CC2)ccc2c1cc(C#N)n2Cc1cc(O)n[nH]1 [Compound 331] | < 100
39 | N#Cc1cc2cc(C(CO)N3CCC(Nc4ncnc5sc(CC(F)(F)F)cc45)CC3)ccc2[nH]1 (stereo not drawn) [Compound 211] | < 100
40 | Cc1c(CN2CCC(Nc3ncnc4sc(CC(F)(F)F)cc34)CC2)ccc2c1cc(C#N)n2Cc1ncco1 [Compound 353] | < 100
41 | COc1cccc(CC(=O)N2CCN(c3ncnc4sc(CC(F)(F)F)cc34)CC2)c1 [Compound 95] | 500 to 2000
42 | CC(C)S(=O)(=O)Nc1ccc(CC(=O)N2CCN(c3ncnc4sc(CC(F)(F)F)cc34)CC2)cc1 [Compound 56] | < 100
43 | N#Cc1cc2cc(CN3CCC(Nc4ncnc5sc(CC(F)(F)F)cc45)CC3)ccc2n1Cc1cc[nH]n1 [Compound 199] | < 100
44 | N#Cc1cc2cc(CN3CCC(Nc4ncnc5sc(CC(F)(F)F)cc45)CC3)ccc2n1Cc1ncon1 [Compound 198] | < 100

Row | SMILES | IC50 [nM]
45 | Cc1ncc(Cn2c(C#N)cc3c(C)c(CN4CCC(Nc5ncnc6sc(CC(F)(F)F)cc56)CC4)ccc32)s1 [Compound 323] | < 100
46 | FC(F)(F)Cc1cc2c(N3CCN(c4nnc(CC5CCCCC5)s4)CC3)ncnc2s1 [Compound 39] | 500 to 2000
47 | N#Cc1cc2cc(CN3CCC(Nc4ncnc5sc(CC(F)(F)F)cc45)C(N)C3)ccc2n1CC1CC1 (stereo not drawn) [Compound 162] | < 100
48 | COc1cc2c(cc(C#N)n2CC(N)=O)c(C)c1CN1CCC(Nc2ncnc3sc(CC(F)(F)F)cc23)CC1 [Compound 385] | < 100
49 | Cc1c(CN2CCC(Nc3ncnc4sc(CC(F)(F)F)cc34)CC2)ccc2c1cc(C#N)n2CC(O)CN1CCNCC1 (stereo not drawn) [Compound 358] | < 100
50 | Cc1nc(Cn2c(C#N)cc3cc(CN4CCC(Nc5ncnc6sc(CC(F)(F)F)cc56)CC4)ccc32)cs1 [Compound 201] | < 100
51 | N#Cc1cc2cc(CN3CCC(Nc4c(COCC5CCCC5)cnc5sc(CC(F)(F)F)cc45)CC3)ccc2[nH]1 [Compound 421] | 500 to 2000
52 | NCCS(=O)(=O)Nc1ccc(CC(=O)N2CCN(c3ncnc4sc(CC(F)(F)F)cc34)CC2)cc1 [Compound 50] | < 100
53 | N#Cc1cc2cc(CN3CCC(Nc4ncnc5sc(CC(F)(F)F)cc45)C(NC[C@H]4CCCN4C=O)C3)ccc2[nH]1 (stereo partly drawn) [Compound 161] | < 100
54 | Fc1ccc(CN2CCC(Nc3ncnc4sc(CC(F)(F)F)cc34)CC2)c(F)c1 [Compound 122] | 100 to 500
55 | N#Cc1cc2cc(CN3CCC(Nc4ncnc5sc(CC(F)(F)F)cc45)CC3)ccc2n1CC(CO)OCC1CCCCC1 (stereo not drawn) [Compound 320] | < 100
56 | Cc1ccc(CN2CCC(Nc3ncnc4sc(CC(F)(F)F)cc34)CC2)c(C)c1 [Compound 120] | 100 to 500
57 | Cc1c(CN2CCC(Nc3ncnc4sc(CC(F)(F)F)cc34)CC2)ccc2c1cc(C#N)n2CCS(C)(=O)=O [Compound 354] | < 100
58 | N#Cc1cc2cc(CN3CCC(Nc4ncnc5sc(CC(F)(F)F)cc45)CC3)ccc2n1CC(CO)OC1CC1 (stereo not drawn) [Compound 222] | < 100
59 | N#Cc1cc2c(CO)c(CN3CCC(Nc4ncnc5sc(CC(F)(F)F)cc45)CC3)ccc2n1Cc1cn[nH]c1 [Compound 335] | < 100
60 | CCCc1cc2c(NC3CCN(Cc4ccccc4Br)CC3)ncnc2s1 [Compound 152] | 500 to 2000
61 | N#Cc1cc2cc(CN3CCC(Nc4ncnc5sc(CC(F)(F)F)cc45)CC3)c(O)cc2[nH]1 [Compound 182, 6-hydroxy-5-((4-((6-(2,2,2-trifluoroethyl)thieno[2,3-d]pyrimidin-4-yl)amino)pipendin-1-yl)methyl)-1H-indole-2-carbonitrile] | < 100
62 | CC(C)NCCS(=O)(=O)Nc1ccc(CC(=O)N2CCN(c3ncnc4sc(CC(F)(F)F)cc34)CC2)cc1 [Compound 60] | < 100
63 | FC(F)(F)Cc1cc2c(NC3CCN(Cc4ccc(C(F)(F)F)cc4)CC3)ncnc2s1 [Compound 146] | 500 to 2000
64 | Nc1ccc(CC(=O)N2CCN(c3ncnc4sc(CC(F)(F)F)cc34)CC2)cc1 [Compound 69] | 100 to 500
65 | N#Cc1ccc(CN2CCC(CNc3ncnc4sc(CC(F)(F)F)cc34)CC2)c(Cl)c1 [Compound 256] | 100 to 500
66 | FC(F)(F)Cc1cc2c(NC3CCN(Cc4ccc5cc[nH]c5c4)CC3)ncnc2s1 [Compound 227] | 100 to 500
